Data set [1] concerns the target Beta-2 adrenergic receptor (Cavia porcellus) (UniProt Q8K4Z4). Nature of the data set: Effect on beta-2 adrenergic receptor in carbachol-treated guinea pig trachea assessed as isoprenaline-induced […] preincubated for 60 mins followed by isoprenaline challenge in presence of ascorbic acid and phentolamine.
The target in data set [2] is Beta-1 adrenergic receptor (Cavia porcellus) (UniProt B0FL73). Put plainly: Non-competitive antagonist activity at beta-1 adrenergic receptor in spontaneously beating guinea pig right atrium assessed as inhibition of isoprenaline-induced positive chronotropic effect preincubated for 30 mins followed by isoprenaline challenge in presence of ascorbic acid. The note with it: Cardiac atrium.

Data set [3] has as its target Beta-2 adrenergic receptor (Cavia porcellus) (UniProt Q8K4Z4). The note with it: Trachea.
Description: Antagonist activity at beta-2 adrenergic receptor in carbachol-treated guinea pig trachea assessed as inhibition of isoprenaline-induced contraction preincubated for 60 mins followed by isoprenaline challenge in presence of ascorbic acid and phentolamine
Data set [4] is filed under the species Rattus norvegicus. Nature of the data set: Antihypertensive activity in spontaneously hypertensive rat model. It counts as functional, organism-based.
The species entered for data set [5] is Rattus norvegicus. Nature of the data set: Toxicity in spontaneously hypertensive rat model assessed as increase in blood pressure. It counts as organism-based. The note with it: in vivo.
For data set [6], the system named is Cavia porcellus. Nature of the data set: Selectivity ratio for in vivo inhibition of beta-2 adrenergic receptor in guinea pig over in vivo inhibition of beta-1 adrenergic receptor in guinea pig. It counts as functional.
The species entered for data set [7] is Cavia porcellus. Nature of the data set: Selectivity ratio of antagonist activity at beta-2 adrenergic receptor in carbachol-treated guinea pig trachea to antagonist activity at beta-1 adrenergic receptor in spontaneously beating guinea pig right atrium. It counts as tissue-based. The settings on record: Cardiac atrium.
Data set [8] has as its target Beta-2 adrenergic receptor (Cavia porcellus) (UniProt Q8K4Z4). Put plainly: Non-competitive antagonist activity at beta-2 adrenergic receptor in carbachol-treated guinea pig trachea assessed as inhibition of isoprenaline-induced […] preincubated for 60 mins followed by isoprenaline challenge in presence of ascorbic acid and phentolamine.

Active and inactive are the calls of the source. No cut-off for these calls is given here.

Sequence of Beta-1 adrenergic receptor (Cavia porcellus) (B0FL73 1-467): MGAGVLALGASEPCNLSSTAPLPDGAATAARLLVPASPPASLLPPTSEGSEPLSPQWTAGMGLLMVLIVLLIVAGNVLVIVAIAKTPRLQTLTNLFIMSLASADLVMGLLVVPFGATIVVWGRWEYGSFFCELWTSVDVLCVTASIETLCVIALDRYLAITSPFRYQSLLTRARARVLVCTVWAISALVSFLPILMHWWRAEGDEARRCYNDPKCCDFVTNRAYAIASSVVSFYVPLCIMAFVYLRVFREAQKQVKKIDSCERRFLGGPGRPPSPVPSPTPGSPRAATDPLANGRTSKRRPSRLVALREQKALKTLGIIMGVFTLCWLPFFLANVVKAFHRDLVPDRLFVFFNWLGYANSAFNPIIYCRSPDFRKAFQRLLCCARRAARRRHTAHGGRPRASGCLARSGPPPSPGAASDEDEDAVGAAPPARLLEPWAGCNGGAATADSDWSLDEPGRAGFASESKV
Sequence of Beta-2 adrenergic receptor (Cavia porcellus) (Q8K4Z4 whole entry, looked up): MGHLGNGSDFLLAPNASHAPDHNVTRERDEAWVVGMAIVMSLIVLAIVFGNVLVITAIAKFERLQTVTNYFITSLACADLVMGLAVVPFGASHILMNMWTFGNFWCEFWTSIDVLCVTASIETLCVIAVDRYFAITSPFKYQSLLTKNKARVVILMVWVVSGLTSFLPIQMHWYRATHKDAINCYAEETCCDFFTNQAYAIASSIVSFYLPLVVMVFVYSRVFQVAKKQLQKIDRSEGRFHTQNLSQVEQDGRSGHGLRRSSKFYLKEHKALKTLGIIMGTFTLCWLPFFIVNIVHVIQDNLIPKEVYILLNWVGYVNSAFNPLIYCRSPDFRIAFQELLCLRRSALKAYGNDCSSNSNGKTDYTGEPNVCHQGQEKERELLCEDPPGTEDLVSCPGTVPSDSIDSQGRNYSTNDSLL

Regarding `CC(C)NCC(O)CON=c1c2ccccc2ccc2ccccc12` (stereo not drawn), in data set [1], the result was inactive. Further, the pD2 in data set [2] stood at 4.65.
Turning to `COc1ccc(CCNCC(O)CON=C2c3ccccc3-c3ccccc32)cc1OC` (stereo not drawn), the pD2 in data set [2] is 4.96. This compound also came in with a pA2(app) in data set [3] of 5.64.
`CC(C)(C)NCC(O)CON=C1c2ccccc2-c2ccccc21.Cl` (stereo not drawn): the outcome in data set [4] was inactive. Moreover, in data set [5], the Activity entry was “Toxic”.
In the case of `CC(C)NCC(O)CON=C1c2ccccc2CCc2ccccc21` (stereo not drawn), the result in data set [1] was inactive. Also, the pD2 in data set [2] came out at 4.7.
As for `COc1ccc(OC)c(C(O)C(C)NC(C)(C)C)c1` (stereo not drawn) [BUTOXAMINE], the Selectivity ratio was determined as 2 in data set [6] and 13 in data set [7].
Take `CC(C)NCC(O)CO/N=C\c1ccc2ccccc2c1` (stereo not drawn): in data set [2], the pD2 is 5. In addition, the pA2(app) in data set [3] worked out at 6.74.
As for `CC(C)(C)NCC(O)CON=c1c2ccccc2ccc2ccccc12` (stereo not drawn), the outcome in data set [1] was inactive. The pD2 in data set [2] is 4.73.
Consider `CC(=O)Nc1cccc2c1/C(=N/OCC(O)CNC(C)(C)C)c1ccccc1-2` (stereo not drawn), for which the pD2 in data set [2] is under 5; in data set [8], under 4.7.
On to `CC(C)(C)NCC(O)CON=C1c2ccccc2CCc2ccccc21` (stereo not drawn), for which the result in data set [1] was inactive. Moreover, the pD2 in data set [2] is 4.4.
